Where a name gives a salt, the structure may show the parent alone.
Columns and labels:
[1] = test system: HIV; conditions: CD4+ cells, Fields, et al., Nature, Vol. 333, 19 May 1988, cited from earlier work
[2] = test system: Moloney murine leukemia virus (MoLV); assay: in vitro XC plaque assay (SC-1 cells infected with MoLV, XC cell overlay, plaques counted); assay type: cell-based; conditions: compound added 2 hours before virus; for Mean No. of Foci: control 84 foci
Experimental: This assay was performed according to the method of Rowe et al. (Virology, 1970,42, 1136-39) as previously described by L. Hsu, et al. (J. Virological Methods, 1980, 1, 167-77) and T. L. Bowlin and M. R. Proffitt (J. Interferon Res., 1983, 3(1), 19-31). Mouse SC-1 cells (fibroblast) (10⁵) were seeded into each well of 6-well cluster plates (Costar #3506) in 4 ml Minimum Essential Medium (MEM) with 10% Fetal Calf Serum (FCS). Following an 18 hour incubation period (37°C), Moloney murine leukemia virus (MoLV) was applied at a predetermined titer to give optimal (i.e. countable) numbers of virus plaques. Compounds were added 2 hours prior to addition of the virus. Three days later the culture medium was removed, the SC-1 cell monolayers were exposed to UV irradiation (1800 ergs), and rat XC cells (10⁶) were seeded into each well in 4 ml MEM. Following an additional 3 day incubation (37°C), these cells were fixed with ethyl alcohol (95%) and stained with 0.3% crystal violet. Plaques were then counted under low magnification.

[3] = test system: RF strain of HIV-1; assay: p24 antigen expression from HIV infected T-lymphocytes (C8166 T cell line); assay type: cell-based; conditions: C8166 cells; for p24 Antigen: 3 h pretreatment, culture fluid after 3 days
Experimental: Cells (C8166 T cell line) were pretreated with test compounds at appropriate concentrations for 3 hours prior to virus (RF strain of HIV-1) absorption. Low multiplicity of infection was used and virus absorption period was 1 hour at room temperature. the cells were washed X1 in PBS and resuspended in fresh medium containing the appropriate concentrations of test compound. Cells incubated at 37°C and after 3 days culture fluid was assayed for p24 antigen as a measure of viral replication. Because these compounds were insoluble in water as their free base, they had to be taken up in DMSO and therefore a series of DMSO virus controls were needed for comparison.

Compound | HIV cell surface binding [1] | viral infectivity ([1]; accumulation of virus particles at the cell surface) | Mean No. of Foci ([2]; 0.10 µg/ml) | Mean No. of Foci ([2]; 1 µg/ml) | inhibition at 0.1 µg/mL ([2]; Murine leukemia virus, SC-1, 0.10 µg/ml) [%] | inhibition at 1 µg/mL ([2]; Murine leukemia virus, SC-1, 1 µg/ml) [%] | p24 Antigen ([3]; 1 µg/ml, vehicle DMSO 0.01%, DMSO control 1027 pg/ml) [pg/mL] | p24 Antigen ([3]; 10 µg/ml, vehicle DMSO 0.1%, DMSO control 2408 pg/ml) [pg/mL] | inhibition at 1 µg/mL ([3]; Human immunodeficiency virus 1, 72 h, 1 µg/ml, vehicle DMSO 0.01%, 3 days) [%] | inhibition at 10 µg/mL ([3]; Human immunodeficiency virus 1, 72 h, 10 µg/ml, vehicle DMSO 0.1%, 3 days) [%]
CC1CNCCN1S(=O)(=O)c1cccc2cnccc12 (stereo not shown) [1,5-isoquinolinesulphonyl-2-methylpiperazine dihydrochloride] | does not interfere with HIV cell surface binding | inhibition of viral infectivity | – | – | – | – | – | – | – | –
CCCc1[nH]c(=O)oc1-c1ccnc2ccccc12 [Test Compound, 4-propyl-5-(4-quinolinyl)-2(3H)-oxazolone] | – | – | 84 | 10 | 0 | 88.1 | 745 | 710 | 28 | 71

— EP0428105A2, “Use of quinolyl- and isoquinolyloxazole-2-ones for the production of a medicament for the prevention of glycoprotein enveloped virus infectivity” (MERRELL DOW PHARMACEUTICALS INC., priority 1989, dated 1991)
